In brackets after ≈: the same amount, converted by molar mass. Like-named read-outs stand apart in the source and are kept apart here.
How the values were obtained:
MTB H37Rv ATCC 27294 = experiment: MIC, microplate Alamar Blue assay (MABA); assay type: cell-based, Mycobacterium tuberculosis; details: for MIC90: MTB H37Rv ATCC 27294, microplate Alamar Blue assay, lowest concentration giving ≥90% reduction in fluorescence
VERO cells (ATCC CRL-81) = experiment: Vero cell toxicity; assay type: cell-based; details: 72 hours exposure
Experimental: Cytotoxicity for a mammalian cell line was determined by exposing VERO cells (ATCC CRL-81) to serial dilutions of test compounds for 72 hours, followed by addition of resazurin and measurement of fluorescence after 4 hours incubation (Choules, et al., Antimnicrob. Agents Chemother. 2019, 63, e02204-02218).

Compound	DPX2 Viability @ 6.25 μM (DPX2 cells; 24 h) [%]	DPX2 Viability @ 25 μM (DPX2 cells; human) [%]	MIC90 MABA Rel to RMP (MTB H37Rv ATCC 27294)	MIC90 (MTB H37Rv ATCC 27294; Mycobacterium tuberculosis) [nM]	IC50 (VERO cells (ATCC CRL-81)) [µM]	MIC90 (MTB H37Rv ATCC 27294) [nM]	DPX2 Viability @ 6.25 μM (DPX2 cells; human, 24 h) [%]	DPX2 Viability @ 25 μM (DPX2 cells; human, 24 h, 25 μM) [%]
CO[C@H]1/C=C/O[C@@]2(C)Oc3c(C)c(O)c4c(=O)c(c5oc6cc(N7CCN(CC(C)C)CC7)cc(N7CCN(CC(C)C)CC7)c6nc-5c4c3C2=O)NC(=O)/C(C)=C\C=C\[C@H](C)[C@H](O)[C@@H](C)[C@@H](O)[C@@H](C)[C@H](OC(C)=O)[C@@H]1C [Compound 17u, 7S,9E,11S,12R,13S,14R,15R,16R,17S,18S,19E,21Z)-2,15,17-trihydroxy-11-methoxy-3,7,12,14,16,18,22-heptamethyl-30,32-bis[4-(2-methylpropyl)piperazin-1-yl]-6,23,37-trioxo-8,27,38-trioxa-24,34-diazahexacyclo[23.11.1.1^4,7.0^5,36.0^26,35.0^28,33]octatriaconta-1,3,5(36)9,19,21,25,28,30,32,34-undecaen-13-yl acetate]	106	90						
CO[C@H]1/C=C/O[C@@]2(C)Oc3c(C)c(O)c4c(=O)c(c5oc6cc(N7CCN(CCn8ccnc8)CC7)cc(C)c6nc-5c4c3C2=O)NC(=O)/C(C)=C\C=C\[C@H](C)[C@H](O)[C@@H](C)[C@@H](O)[C@@H](C)[C@H](OC(C)=O)[C@@H]1C [Compound 26c, (7S,9E,11S,12R,13S,14R,15R,16R,17S,18S,19E,21Z)-2,15,17-trihydroxy-30-{4-[2-(1H-imidazol-1-yl)ethyl]piperazin-1-yl}-11-methoxy-3,7,12,14,16,18,22,32-octamethyl-6,23,37-trioxo-8,27,38-trioxa-24,34-diazahexacyclo[23.11.1.1^4,7.0^5,36.0^26,35.0^28,33]octatriaconta-1(36)2,4,9,19,21,25,28,30,32,34-undecaen-13-yl acetate]	108	96						
CO[C@H]1/C=C/O[C@@]2(C)Oc3c(C)c(O)c4c(=O)c(c5oc6cc(N7CCN(C(C)=O)CC7)cc(C)c6nc-5c4c3C2=O)NC(=O)/C(C)=C\C=C\[C@H](C)[C@H](O)[C@@H](C)[C@@H](O)[C@@H](C)[C@H](OC(C)=O)[C@@H]1C [Compound 26d, (7S,9E,11S,12R,13S,14R,15R,16R,17S,18S,19E,21Z)-30-(4-Acetylpiperazin-1-yl)-2,15,17-trihydroxy-11-methoxy-3,7,12,14,16,18,22,32-octamethyl-6,23,37-trioxo-8,27,38-trioxa-24,34-diazahexacyclo[23.11.1.1^4,7.0^5,36.0^26,35.0^28,33]octatriaconta-1(36)2,4,9,19,21,25,28,30,32,34-undecaen-13-yl acetate]	106	88	0.35	9.4				
CCC(=O)N1CCN(c2cc(C)c3nc4c5c6c7c(C)c(O)c5c(=O)c(c-4oc3c2)NC(=O)/C(C)=C\C=C\[C@H](C)[C@H](O)[C@@H](C)[C@@H](O)[C@@H](C)[C@H](OC(C)=O)[C@H](C)[C@@H](OC)/C=C/O[C@@](C)(O7)C6=O)CC1 [Compound 26e, (7S,9E,11S,12R,13S,14R,15R,16R,17S,18S,19E,21Z)-2,15,17-Trihydroxy-11-methoxy-3,7,12,14,16,18,22,32-octamethyl-6,23,37-trioxo-30-(4-propanoylpiperazin-1-yl)-8,27,38-trioxa-24,34-diazahexacyclo[23.11.1.1^4,7.0^5,36.0^26,35.0^28,33]octatriaconta-1(36)2,4,9,19,21,25,28,30,32,34-undecaen-13-yl acetate]	101	97	0.35	9.4				
CO[C@H]1/C=C/O[C@@]2(C)Oc3c(C)c(O)c4c(=O)c(c5oc6cc(N7CCN(C(=O)C(C)(C)C)CC7)cc(C)c6nc-5c4c3C2=O)NC(=O)/C(C)=C\C=C\[C@H](C)[C@H](O)[C@@H](C)[C@@H](O)[C@@H](C)[C@H](OC(C)=O)[C@@H]1C [Compound 26f, (7S,9E,11S,12R,13S,14R,15R,16R,17S,18S,19E,21Z)-30-[4-(2,2-Dimethylpropanoyl)piperazin-1-yl]-2,15,17-trihydroxy-11-methoxy-3,7,12,14,16,18,22,32-octamethyl-6,23,37-trioxo-8,27,38-trioxa-24,34-diazahexacyclo[23.11.1.1^4,7.0^5,36.0^26,35.0^28,33]octatriaconta-1(36)2,4,9,19,21,25,28,30,32,34-undecaen-13-yl acetate]	111	102	0.17	4.6				
COC(=O)N1CCN(c2cc(C)c3nc4c5c6c7c(C)c(O)c5c(=O)c(c-4oc3c2)NC(=O)/C(C)=C\C=C\[C@H](C)[C@H](O)[C@@H](C)[C@@H](O)[C@@H](C)[C@H](OC(C)=O)[C@H](C)[C@@H](OC)/C=C/O[C@@](C)(O7)C6=O)CC1 [Compound 26g, Methyl 4-[(7S,9E,11S,12R,13S,14R,15R,16R,17S,18S,19E,21Z)-13-(acetyloxy)-2,15,17-trihydroxy-11-methoxy-3,7,12,14,16,18,22,32-octamethyl-6,23,37-trioxo-8,27,38-trioxa-24,34-diazahexacyclo[23.11.1.1^4,7.0^5,36.0^26,35.0^28,33]octatriaconta-1(36)2,4,9,19,21,25,28,30,32,34-undecaen-30-yl]piperazine-1-carboxylate]	111	105	0.18	5 (≈ 4.71 ng/mL)				
CCOC(=O)N1CCN(c2cc(C)c3nc4c5c6c7c(C)c(O)c5c(=O)c(c-4oc3c2)NC(=O)/C(C)=C\C=C\[C@H](C)[C@H](O)[C@@H](C)[C@@H](O)[C@@H](C)[C@H](OC(C)=O)[C@H](C)[C@@H](OC)/C=C/O[C@@](C)(O7)C6=O)CC1 [Compound 26h, Ethyl 4-[(7S,9E,11S,12R,13S,14R,15R,16R,17S,18S,19E,21Z)-13-(acetyloxy)-2,15,17-trihydroxy-11-methoxy-3,7,12,14,16,18,22,32-octamethyl-6,23,37-trioxo-8,27,38-trioxa-24,34-diazahexacyclo[23.11.1.1^4,7.0^5,36.0^26,35.0^28,33]octatriaconta-1(36)2,4,9,19,21,25,28,30,32,34-undecaen-30-yl]piperazine-1-carboxylate]	118	110	0.18	4.9 (≈ 4.68 ng/mL)				
CO[C@H]1/C=C/O[C@@]2(C)Oc3c(C)c(O)c4c(=O)c(c5oc6cc(N7CCN(C(=O)OC(C)(C)C)CC7)cc(C)c6nc-5c4c3C2=O)NC(=O)/C(C)=C\C=C\[C@H](C)[C@H](O)[C@@H](C)[C@@H](O)[C@@H](C)[C@H](OC(C)=O)[C@@H]1C [Compound 26i, tert-Butyl 4-[(7S,9E,11S,12R,13S,14R,15R,16R,17S,18S,19E,21Z)-13-(acetyloxy)-2,15,17-trihydroxy-11-methoxy-3,7,12,14,16,18,22,32-octamethyl-6,23,37-trioxo-8,27,38-trioxa-24,34-diazahexacyclo[23.11.1.1^4,7.0^5,36.0^26,35.0^28,33]octatriaconta-1(36)2,4,9,19,21,25,28,30,32,34-undecaen-30-yl]piperazine-1-carboxylate]	120	102	0.17	4.7 (≈ 4.62 ng/mL)				
CO[C@H]1/C=C/O[C@@]2(C)Oc3c(C)c(O)c4c(=O)c(c5oc6cc(N7CCN(CCCCCCO[C@@H]8COc9nc([N+](=O)[O-])cn9C8)CC7)cc(C)c6nc-5c4c3C2=O)NC(=O)/C(C)=C\C=C\[C@H](C)[C@H](O)[C@@H](C)[C@@H](O)[C@@H](C)[C@H](OC(C)=O)[C@@H]1C [Compound 29e, (7S,9E,11S,12R,13S,14R,15R,16R,17S,18S,19E,21Z)-2,15,17-Trihydroxy-11-methoxy-3,7,12,14,16,18,22,32-octamethyl-30-[4-(6-{[(6S)-2-nitro-5H,6H,7H-imidazo[2,1-b][1,3]oxazin-6-yl]oxy}hexyl)piperazin-1-yl]-6,23,37-trioxo-8,27,38-trioxa-24,34-diazahexacyclo[23.11.1.1^4,7.0^5,36.0^26,35.0^28,33]octatriaconta-1(36)2,4,9,19,21,25,28,30,32,34-undecaen-13-yl acetate]	112	99	0.07	2				
CO[C@H]1/C=C/O[C@@]2(C)Oc3c(C)c(O)c4c(=O)c(c5oc6cc(C=O)cc(N7CCN(C)CC7)c6nc-5c4c3C2=O)NC(=O)/C(C)=C\C=C\[C@H](C)[C@H](O)[C@@H](C)[C@@H](O)[C@@H](C)[C@H](OC(C)=O)[C@@H]1C [Compound 30b, (7S,9E,11S,12R,13S,14R,15R,16R,17S,18S,19E,21Z)-30-Formyl-2,15,17-trihydroxy-11-methoxy-3,7,12,14,16,18,22-heptamethyl-32-(4-methylpiperazin-1-yl)-6,23,37-trioxo-8,27,38-trioxa-24,34-diazahexacyclo[23.11.1.1^4,7.0^5,36.0^26,35.0^28,33]octatriaconta-1(36)2,4,9,19,21,25,28,30,32,34-undecaen-13-yl acetate]			1.37		> 8	37		
CO[C@H]1/C=C/O[C@@]2(C)Oc3c(C)c(O)c4c(c3C2=O)C2=NC3(CCN(CC(C)C)CC3)NC2=C(NC(=O)/C(C)=C\C=C\[C@H](C)[C@H](O)[C@@H](C)[C@@H](O)[C@@H](C)[C@H](OC(C)=O)[C@@H]1C)C4=O [RFB, rifabutin, reference compound]			0.09	2.4 (≈ 2.03 ng/mL)			117	107

Reference: patent US20250188092A1, “RIFAMYCIN ANALOGS” (THE REGENTS OF THE UNIVERSITY OF MICHIGAN, priority 2021, published 2025)
